Experimental data as given in patent US20080312080A1 (priority 2006, published 2008).

Test system: Aspergillus parasiticus NRRL 2999
Format: cell-based

Substance | aflatoxin production inhibition activity (in words)
(S)-3-aminooctanoyl-(S)-3-aminooctanoyl-L-alanine [Example 6] | extremely excellent aflatoxin production inhibition activity
(S)-3-aminooctanoyl-(S)-3-aminooctanoyl-L-proline [Example 8] | extremely excellent aflatoxin production inhibition activity
(S)-3-aminooctanoyl-(S)-3-aminooctanoyl-glycine [Example 4] | extremely excellent aflatoxin production inhibition activity
